This is an account of results in PMC6315564, “Geospallins A–C: New Thiodiketopiperazines with Inhibitory Activity against Angiotensin-Converting Enzyme from a Deep-Sea-Derived Fungus Geosmithia pallida FS140” (Marine Drugs, 2018).

Structures are written as SMILES.

The target of the test is angiotensin-converting enzyme (ACE) (Homo sapiens, UniProt P12821). The test is described as follows: Angiotensin-converting enzyme (ACE) inhibitory assay (N-hippuryl-His-Leu substrate, HPLC detection of hippuric acid). The format is biochemical. The note with it: 37 °C, 60 min, captopril positive control, read-out: IC50 against angiotensin-converting enzyme (ACE). Here is the method: ACE inhibitory activity was determined by a previously reported method. In brief, 20 μL thiodiketopiperazines dissolved in DMSO with different concentrations were added to 120 μL N-hippuryl–His–Leu substrates, then preheated in water for 3–5 min; next, 10 μL ACE enzymatic solution was added and mixtures were incubated at 37 °C for 60 min, and 150 μL 1 M HCl was added to stop the reaction. The mixture was loaded for HPLC with a flow rate of 0.5 mL/min by 60% methanol, and the absorbance at 228 nm was detected. To serve as a blank, 10 μL pH 8.3 boric acid replaced the thiodiketopiperazines. Hippuric acid solutions at 10, 20, 40, 60, 80, and 100 μg/mL were prepared using 10 μL pH 8.3 boric acid. One enzymatic unit was defined as the amount giving the production of 1 μM hippuric acid by the catalyzation of the substrate N-hippuryl–His–Leu at 37 °C in 1 min. Captopril was used as a positive control.
Chain of angiotensin-converting enzyme (ACE) (P12821 30-1306, species assumed): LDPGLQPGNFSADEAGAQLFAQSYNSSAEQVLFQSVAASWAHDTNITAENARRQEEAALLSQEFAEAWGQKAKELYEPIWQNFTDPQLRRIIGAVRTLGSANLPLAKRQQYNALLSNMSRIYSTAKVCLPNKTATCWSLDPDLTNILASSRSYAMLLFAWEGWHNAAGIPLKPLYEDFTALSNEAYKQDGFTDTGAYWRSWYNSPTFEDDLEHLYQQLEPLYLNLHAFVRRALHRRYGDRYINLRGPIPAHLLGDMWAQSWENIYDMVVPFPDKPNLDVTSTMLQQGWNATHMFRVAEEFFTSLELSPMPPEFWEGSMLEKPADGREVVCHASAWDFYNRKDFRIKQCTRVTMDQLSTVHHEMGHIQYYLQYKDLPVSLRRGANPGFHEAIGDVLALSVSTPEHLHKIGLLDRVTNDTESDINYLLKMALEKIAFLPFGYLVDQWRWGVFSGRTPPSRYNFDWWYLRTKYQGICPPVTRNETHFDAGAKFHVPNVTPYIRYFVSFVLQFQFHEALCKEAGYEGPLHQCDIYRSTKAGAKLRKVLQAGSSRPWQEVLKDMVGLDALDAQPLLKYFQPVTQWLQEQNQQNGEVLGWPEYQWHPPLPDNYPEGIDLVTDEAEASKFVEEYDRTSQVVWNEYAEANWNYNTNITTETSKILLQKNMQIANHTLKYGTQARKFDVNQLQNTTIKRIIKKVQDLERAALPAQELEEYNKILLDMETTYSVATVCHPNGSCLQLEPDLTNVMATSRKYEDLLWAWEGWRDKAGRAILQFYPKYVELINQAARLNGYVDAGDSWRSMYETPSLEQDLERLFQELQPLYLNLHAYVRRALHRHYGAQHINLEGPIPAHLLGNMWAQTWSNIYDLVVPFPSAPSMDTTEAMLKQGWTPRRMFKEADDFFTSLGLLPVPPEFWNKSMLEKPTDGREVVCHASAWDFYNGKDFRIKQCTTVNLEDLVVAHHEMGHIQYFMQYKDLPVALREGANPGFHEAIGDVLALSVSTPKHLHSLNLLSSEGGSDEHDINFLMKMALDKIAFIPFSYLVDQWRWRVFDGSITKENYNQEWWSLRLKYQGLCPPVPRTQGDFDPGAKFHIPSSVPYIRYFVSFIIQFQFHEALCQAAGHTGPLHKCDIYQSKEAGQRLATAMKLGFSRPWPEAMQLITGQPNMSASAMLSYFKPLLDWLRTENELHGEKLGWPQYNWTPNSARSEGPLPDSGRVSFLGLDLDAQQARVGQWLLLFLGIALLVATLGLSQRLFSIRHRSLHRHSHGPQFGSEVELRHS
Turning to `COC12CC3(O)C(SC)C=CC(OC(C)=O)C3N1C(=O)C(CO)(SC)N(C)C2=O` (stereo not drawn) [Compound 1, geospallin A], the IC50 – broadly, the concentration at which inhibition is half-maximal – stood at 35 ± 5.2 µM.
`CSC1C=CC(OC(C)=O)C2N3C(=O)C(CO)(SC)N(C)C(=O)C3(O)CC12O` (stereo not drawn) [Compound 2, geospallin B]: the IC50 came out at 31 ± 3.3 µM.
Turning to `CSC1(CO)C(=O)N2C3C(OC(C)=O)C(=O)C=CC3(O)CC2(SC)C(=O)N1C` (stereo not drawn) [Compound 3, geospallin C], the IC50 turned out to be 29 ± 3.3 µM.
